Experimental data as given in BindingDB's records for doi:10.1016/j.bbrc.2004.06.020 (Chosun University, 2004).
pIC50: −log10 of the molar value.

Test: TP_TRANSPORTER: drug resistance (vincristine) in AML-2/D100 cells

Row | Structure (SMILES) | pIC50
1 | COc1cc(-c2oc3cc(O)cc(O)c3c(=O)c2O)cc(OC)c1OC | 5.49
2 | COc1ccc2oc(-c3ccc(OC)c(OC)c3)c(OC)c(=O)c2c1 | 5.72
3 | COc1ccc(-c2oc3cc(O)ccc3c(=O)c2O)cc1OC | 5.20
4 | O=c1cc(-c2ccc(O)c(O)c2)oc2cc(O)cc(O)c12 [2-(3,4-dihydroxyphenyl)-5,7-dihydroxy-4H-chromen-4-one] | 4.71
5 | COc1ccc(-c2cc(=O)c3c(OC)c(OC)c(OC)cc3o2)cc1OC [2-(3,4-dimethoxyphenyl)-5,6,7-trimethoxy-4H-chromen-4-one] | 5.49

Now those with a higher pIC50, led by results:

Row | pIC50 | Structure (SMILES)
6 | 5.85 | COc1ccc(-c2cc(=O)c3c(OC)cc(OC)cc3o2)cc1 [TRIMETHYLAPIGENIN]
7 | 5.92 | COc1ccc(-c2cc(=O)c3ccccc3o2)cc1OC
8 | 5.92 | COc1ccc2c(=O)cc(-c3ccc(OC)c(OC)c3)oc2c1
9 | 6.05 | COc1cc(-c2cc(=O)c3c(OC)c(OC)c(OC)cc3o2)cc(OC)c1OC
10 | 6.40 | COc1cc(OC)c2c(=O)cc(-c3cc(OC)c(OC)c(OC)c3)oc2c1
